Measured values reported in patent US8431603B2, “3-phenylpyrazolo[5,1-b]thiazole compounds” (Eisai R&D Management Co., Ltd., priority 2008, dated 2013).

How the values were obtained:
rats [1] = settings: cited from earlier work
rats [2] = settings: cited from earlier work; remark: listed apart in the source
rats [3] = settings: cited from earlier work; remark: listed apart in the source
[4] = pretreatment; cited from earlier work
[5] = in vivo; cited from earlier work
[6] = in vivo; cited from earlier work; remark: listed apart in the source
[7] = in vivo; cited from earlier work; remark: listed apart in the source
human CRFR1 = target: T1, human CRFR1 (Homo sapiens, UniProt P34998); assay: CRFR1 binding test (SPA competition with 125I-CRF, membrane fraction of CRFR1-expressing HEK293 cells); settings: 100 pM 125I-CRF, room temperature, read-out: CRF1 receptor binding capacity IC50
T1 construct: The full-length CRFR1 gene was obtained by PCR using human brain cDNA library; expressed in transfected cells; pcDNA3.1 expression vector; membrane fraction used
T1 sequence (P34998 24-415): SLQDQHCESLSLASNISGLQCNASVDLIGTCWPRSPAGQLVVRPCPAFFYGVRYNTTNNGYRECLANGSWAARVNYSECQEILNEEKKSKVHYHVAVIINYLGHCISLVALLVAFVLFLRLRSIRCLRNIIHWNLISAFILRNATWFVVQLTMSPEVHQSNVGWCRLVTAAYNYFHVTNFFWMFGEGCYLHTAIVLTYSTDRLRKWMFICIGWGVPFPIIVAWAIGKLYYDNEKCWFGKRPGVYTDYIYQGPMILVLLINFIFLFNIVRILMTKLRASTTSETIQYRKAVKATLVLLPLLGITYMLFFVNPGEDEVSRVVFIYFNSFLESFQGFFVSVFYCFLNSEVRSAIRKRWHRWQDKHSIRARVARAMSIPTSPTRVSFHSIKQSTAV
Protocol: The binding capacities of the compounds of the invention for CRF1 receptor (CRFR1) were evaluated.
The membrane fraction of human CRFR1 high-expressing cells was used as the material for a CRFR1 binding experiment. The CRFR1-expressing cells were prepared in the following manner. The full-length CRFR1 gene was obtained by PCR using human brain cDNA library (QuickClone™ Clontech). The obtained DNA fragment was inserted into a cloning vector and the nucleotide sequence was confirmed. cDNA having the proper nucleotide sequence was linked to an expression vector (pcDNA3.1™, Invitrogen). The CRFR1 expression vector was introduced into HEK293 cell, and the resistant cells which proliferated in culture medium containing G418 (1 mg/ml) were cloned by the limiting dilution method. Out of the cloned cells, cells having high binding affinity between the membrane fraction per unit of protein and sauvagine were selected according to the following binding experiment. And the selected cells were used for the experiments.
The cloned cells obtained in (1) were collected and suspended in ice-cooled membrane buffer (50 mM Tris-HCl, 5 mM MgCl2, 2 mM EGTA, 1 mM DTT, protease inhibitor cocktail (COMPLETE™, Roche Diagnostics) pH 7.3), and then the cells were disrupted with a Polytron ([…]) while cooling on ice (level 5, 10 seconds, 2-5 times, ice-cooling) and then centrifuged (2,000 rpm, 5 minutes, 4° C.), after which the supernatant was collected. Membrane buffer was added to the precipitate, and the mixture was subjected to Polytron treatment (same conditions as above) and centrifuged (same conditions as above), and the obtained supernatant was collected and combined with the previous supernatant. This was centrifuged (13,000 rpm (18,000×g), 30 minutes, 4° C.) to prepare cell membranes. The precipitated cell membranes were suspended in membrane buffer and disrupted with a Polytron (level 5, 10 seconds, 3-5 times, ice-cooling) to prepare a dispersed suspension. The protein assay was performed.
The following method (1) or (2) was performed for use as the cell membrane fraction.
(1) The above dispersed suspension was diluted with membrane buffer containing 0.1% BSA to a protein concentration of 200 μg/ml, for use as the cell membrane fraction
(2) The above dispersed suspension was frozen for preservation, and if needed, thawed, re-dispersed and diluted for used as the cell membrane fraction.
A binding competition experiment with CRF was conducted by the SPA (GE Healthcare) method using a 96-well plate. A mixture of 5 μg of the cell membrane fraction protein, 1 mg of SPA beads and 100 pM ^125I-CRF (Perkin Elmer) was allowed to stand at room temperature for at least 2 hours in the presence of a test compound, and the radioactivity of each well after centrifugation (1,200 rpm (260×g), 5 minutes, room temperature) was measured with a TopCount (registered trademark; Perkin Elmer).
The radioactivity with addition of a 4,000-fold excess of non-radioactive sauvagine as the nonspecific binding was subtracted from each value, and the resulting value was expressed as a percentage (% of control), with 100% as the radioactivity without addition of the test compound (control). The IC50 value was calculated from a binding inhibition curve drawn with test compound concentration on the horizontal axis and % (% of control) on the vertical axis.

Balb/c mice = assay: Light/dark box test in mice (anxiolytic effect); format: in vivo
Protocol: The light/dark box test in mice was carried out according to a modified method of Belzung C., Misslin R., Vogel E. et al. (Reference; Behavioural effects of the benzodiazepine receptor partial agonist RO16-6028 in mice, Psychopharmacology, 97, 388-391, 1989). The test apparatus used was a light/dark box comprising a covered black acrylic box (dark box; 15×10×20 cm), an uncovered white acrylic box (light box; 15×20×20 cm) and a black acrylic tunnel (10×7×4.5 cm) which connects dark box and light box and enables a mouse to freely move back and forth between the dark box and light box. In this test apparatus, however, a transparent acrylic polymer was used for the front side (20×20 cm) and back side (20×20 cm) of the light box to allow observation of the behavior. After setting illumination so that the light intensity of the floor of the light box was 150 Lux, 5-week-old male Balb/c mice (purchased from Nihon Charles River) were introduced into the dark box at the beginning of the test. For the test, the tested compound was suspended in 5% dimethylsulfoxide, 5% Cremopor EL and 90% physiological saline and orally administered to the test animals one hour prior to the start of the test.
The time spent in the light box was measured as an index of the anxiolytic effect, with “spend in the light box” defined as the state in which all limbs of the mice were on the floor of the light box. […] The statistical significance between the vehicle-treated group and the test compound-treated groups was analyzed by one way analysis of variance followed by Dunnett multiple comparison when multiple doses were set for the same test, and by the Mann-Whitney U test when only one dose was set.

[8] = in vivo; cited from earlier work; remark: listed apart in the source
rats [9] = settings: cited from earlier work; remark: listed apart in the source
high-anxiety rats = settings: particularly in high-anxiety rats; cited from earlier work
rat = settings: cited from earlier work
Tg2576 mice = settings: cited from earlier work
[10] = in vivo; cited from earlier work; remark: listed apart in the source
[11] = in vivo; cited from earlier work; remark: listed apart in the source
[12] = in vivo; cited from earlier work; remark: listed apart in the source
IBS patients = settings: cited from earlier work
ethanol withdrawal rats = settings: cited from earlier work
[13] = in vivo; cited from earlier work; remark: listed apart in the source
[14] = in vivo; cited from earlier work; remark: listed apart in the source

For CCCCN(CC)c1nc(C)nc2c1c(C)cn2-c1c(C)cc(C)cc1C [CP-154526], the “anti-depressant and anti-anxiety actions” value (rats [1]) is given as “exhibits anti-depressant and anti-anxiety actions”, the “recurrence of stress-elicited alcohol-seeking behavior” value (rats [2]) is given as “inhibits” and the “recurrence of stress-elicited drug (heroin, cocaine)-seeking behavior” value (rats [3]) is given as “inhibits”. For the same compound, the “naltrexone-induced morphine withdrawal symptoms” value [4] was “inhibits”, the “gastric emptying retardation following surgery” value [5] was “ameliorates” and the “learning disturbance following acute stress” value [6] was “inhibits”.

In the case of CCN(c1nc(C)cc(N2CC=C(c3cccc(F)c3)CC2)n1)c1ccc(C(C)C)cc1SC [CRA1000], the “stress-related reduction in food intake” value [7] is listed as “inhibit”.

In the case of COc1cc(C#N)cc(OC)c1-c1csc2c(N(CC3CC3)CC3CCOC3)c(OC)nn12 (stereo not drawn) [Example 14, 4-{7-[(Cyclopropylmethyl)(tetrahydrofuran-3-ylmethyl)amino]-6-methoxypyrazolo[5,1-b][1,3]thiazol-3-yl}-3,5-diimethoxybenzonitrile], the IC50 (human CRFR1) is reported as 0.09 µM, the “anxiolytic effect in the light/dark box test” value (Balb/c mice; 30 mg/kg, oral administration) is reported as “statistically significant effects” and the minimal effective dose (Balb/c mice; Mus musculus, 1 h, minimum dose significantly prolonging time spent in the light box vs vehicle, oral, one hour prior to test) is reported as 30 mg/kg.

In the case of CCCN(CCC)c1cc(C)nc2c(-c3cnc(N(C)C)cc3C)c(C)nn12 [Example R121919], the “ameliorating depression, depressive symptoms, anxiety” value [8] is listed as “effective”, the anti-anxiety action (rats [9]) is listed as “exhibits an anti-anxiety action” and the stress-related sleep disorder (high-anxiety rats) is listed as “inhibits”.

In the case of CCCN(CC1CC1)c1nc(C)nc(Nc2c(Cl)cc(Cl)cc2Cl)c1Cl [NBI-27914], the “water avoidance stress-related rat catharsis” value (rat) is listed as “inhibits”, the “increased levels of Aβ and Aβ plaque deposition induced by stress” value (Tg2576 mice) is listed as “inhibits” and the “limbic system seizure (convulsion and epilepsy induced by CRF administration)” value [10] is listed as “inhibits”.

For CCCCN(CC)c1nc(C)nc2c1c(C)c(C)n2-c1c(C)cc(C)cc1C [antalarmin], the “stress-induced hippocampal tau phosphorylation” value [11] is given as “inhibits” and the “hypertension induced by intraventricular administration of CRF” value [12] is given as “inhibits”.

For α-helical CRF(9-41), the “abdominal pain and anxiety” value (IBS patients) is given as “reduces”, the colon intestinal hyperkinesis (IBS patients) is given as “inhibits” and the anxiety behavior (ethanol withdrawal rats) is given as “inhibits”. The “stress-related reduction in food intake” value [7] was “inhibit”, the “stress-related increase in intracerebral amyloid-β” value [13] was “suppresses” and the “ischemic and excitotoxic encephalopathy” value [14] was “inhibits”.
